The numbers were not newly measured in US6602521B1, “Multiplex drug delivery system suitable for oral administration” (Impax Pharmaceuticals, Inc., priority 1998, dated 2003), which cites them from elsewhere.

In the case of `O=[N+]([O-])O[C@@H]1CO[C@H]2[C@@H]1OC[C@@H]2O` [Isosorbide mononitrate, 1,4:3,6-dihydro-D-glucitrol 5-nitrate], where the note is “gastrointestinal tract”, the “absorption from the gastrointestinal tract” value is “rapidly and completely absorbed”. Besides, the rate of clearance result (healthy young adults vs patients with various degrees of renal, hepatic, or cardiac dysfunction) is “the same”. Also, the “first pass metabolism in the liver” value (in humans) was “not subject to first pass metabolism”. For the same molecule, the overall elimination half-life entry (in vivo) is “about 6 hours”.
